Here are results for twelve compounds from patent publication US20240317744A1, “Bicyclic Ureas As Kinase Inhibitors” (Incyte Corporation, priority 2023, published 2024).

Assay [1] addresses T1, catalytic domain (JH1, amino acids 826-1132) of human JAK2 (Homo sapiens, UniProt O60674).
T1 construct: catalytic domain (JH1, amino acids 826-1132) of human JAK2; FLAG (N); biotin (biotinylated); purchased Carna Biosciences 08-445-20N; host or cells: baculovirus expression system
Description: JAK2 LanthaScreen JH1 Binding Assay. The following applies: JAK2 JH1 1.5 nM, 50 nM tracer, 2 hours at 25° C.; read-out: JH1 BIND. On the procedure: Example A. JAK2 LanthaScreen JH1 Binding Assay
JAK2 JH1 binding assay utilizes catalytic domain (JH1, amino acids 826-1132) of human JAK2 expressed as N-terminal FLAG-tagged, biotinylated protein in a baculovirus expression system (Carna Biosciences, Product #08-445-20N). The assay was conducted in black 384-well polystyrene plates in a final reaction volume of 20 μL. JAK2 JH1 (1.5 nM) was incubated with compounds (100 nL serially diluted in DMSO) in the presence of 50 nM fluorescent JAK2-JH1 tracer and 0.5 nM Streptavidin-Tb cryptate (Cisbio Part #610SATLB) in assay buffer (50 mM Tris, pH=7.5, 10 mM MgCl2, 0.01% Brij-35, 0.1% BSA, 1 mM EGTA, 5% Glycerol and 5 mM DTT). Non-specific binding was accessed in the presence of 2 mM ATP. After incubation for 2 hours at 25° C., LanthaScreen signals were read on a PHERAstar FS plate reader (BMG LABTECH). Data was analyzed with IDBS XLfit and GraphPad Prism 5.0 software using a four parameter dose response curve to determine IC50 for each compound.
A general note: In TR-FRET formats the signal depends on donor and acceptor labels being close together.

Assay [2] has as its target T2, pseudo-kinase domain (JH2, amino-acids 536-812) of human Wild Type JAK2 (Homo sapiens, UniProt O60674, F794H/W659A/W777A).
T2 construct: pseudo-kinase domain (JH2, amino-acids 536-812 with 3 surface mutations W659A, W777A, F794H); His (C); purchased BPS Bioscience 79463; host or cells: baculovirus expression system
Description: JAK2 LanthaScreen JH2-WT Binding Assay. Particulars: JAK2 JH2-WT 0.145 nM, 50 nM tracer, 1 hour at 25° C.; read-out: JH2 BIND WT. On the procedure: Example B. JAK2 LanthaScreen JH2-WT Binding Assay
JAK2 JH2-WT binding assay utilizes pseudo-kinase domain (JH2, amino-acids 536-812 with 3 surface mutations W659A, W777A, F794H) of human Wild Type JAK2 expressed as C-terminal His-Avi-tagged, biotinylated protein in a baculovirus expression system (BPS Bioscience, Catalog #79463). The assay was conducted in black 384-well polystyrene plates in a final reaction volume of 20 μL. JAK2 JH2-WT (0.145 nM) was incubated with compounds (100 nL serially diluted in DMSO) in the presence of 50 nM Fluorescent JAK2-JH2 Tracer (MedChem Express Catalog #HY-102055) and 0.25 nM Streptavidin-Tb cryptate (Cisbio Part #610SATLB) in assay buffer (50 mM Tris, pH=7.5, 10 mM MgCl2, 0.01% Brij-35, 0.1% BSA, 1 mM EGTA, 5% Glycerol and 5 mM DTT). Non-specific binding was accessed in the presence of 2 mM ATP. After incubation for 1 hour at 25° C., LanthaScreen signals were read on a PHERAstar FS plate reader (BMG LABTECH). Data was analyzed with IDBS XLfit and GraphPad Prism 5.0 software using a four parameter dose response curve to determine IC50 for each compound.

The target of assay [3] is catalytic domain (JH1, amino acids 808-1132) of human JAK2 (Homo sapiens, UniProt O60674). Description: JAK2 HTRF Enzyme Activity Assay. Format: biochemical. Particulars: ATP 30 µM, 60 minutes at 25° C.; read-out: V617F ENZ 30 UM.
Sequence of catalytic domain (JH1, amino acids 808-1132) of human JAK2 (O60674 808-1132 limits assumed): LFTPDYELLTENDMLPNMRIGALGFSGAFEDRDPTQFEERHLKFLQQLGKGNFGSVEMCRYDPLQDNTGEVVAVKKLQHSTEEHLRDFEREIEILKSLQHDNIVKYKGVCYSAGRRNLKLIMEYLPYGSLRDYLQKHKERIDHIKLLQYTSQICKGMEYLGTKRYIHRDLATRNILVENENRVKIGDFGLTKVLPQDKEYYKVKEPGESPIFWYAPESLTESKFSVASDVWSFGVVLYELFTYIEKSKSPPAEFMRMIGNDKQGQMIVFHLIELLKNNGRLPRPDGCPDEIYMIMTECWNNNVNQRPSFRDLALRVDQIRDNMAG
Assay [4] deals with T3, pseudo-kinase domain (JH2, amino-acids 536-812) of human V617F mutant JAK2 (Homo sapiens, UniProt O60674, F794H/V617F/W659A/W777A).
T3 construct: pseudo-kinase domain (JH2, amino-acids 536-812 with 3 surface mutations W659A, W777A, F794H); His (C); purchased BPS Bioscience 79498; host or cells: baculovirus expression system
T3 sequence (O60674 536-812 V617F/W659A/W777A/F794H): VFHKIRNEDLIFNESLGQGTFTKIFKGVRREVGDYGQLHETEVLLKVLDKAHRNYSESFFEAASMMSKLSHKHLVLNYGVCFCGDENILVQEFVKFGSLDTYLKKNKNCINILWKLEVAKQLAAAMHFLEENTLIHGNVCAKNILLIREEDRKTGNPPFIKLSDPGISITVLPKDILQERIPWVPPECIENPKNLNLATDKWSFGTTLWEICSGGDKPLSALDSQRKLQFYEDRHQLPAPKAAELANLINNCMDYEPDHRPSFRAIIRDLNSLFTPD
Description: JAK2 LanthaScreen JH2-V617F Binding Assay. Particulars: JAK2 JH2-V617F 0.26 nM, 50 nM tracer, 1 hour at 25° C.; read-out: JH2 BIND V617F. The gist of the method: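 Serially diluted compounds are mixed with 0.26 nM protein, 50 nM fluorescent JAK2-JH2 tracer and 0.25 nM terbium-labelled streptavidin, then incubated 1 h at 25° C. LanthaScreen signal is read, and IC50 is fitted.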

T2 sequence (O60674 536-812 W659A/W777A/F794H): as the sequence (O60674 536-812 V617F/W659A/W777A/F794H) above, with F82V counted along it
T1 sequence (O60674 826-1132): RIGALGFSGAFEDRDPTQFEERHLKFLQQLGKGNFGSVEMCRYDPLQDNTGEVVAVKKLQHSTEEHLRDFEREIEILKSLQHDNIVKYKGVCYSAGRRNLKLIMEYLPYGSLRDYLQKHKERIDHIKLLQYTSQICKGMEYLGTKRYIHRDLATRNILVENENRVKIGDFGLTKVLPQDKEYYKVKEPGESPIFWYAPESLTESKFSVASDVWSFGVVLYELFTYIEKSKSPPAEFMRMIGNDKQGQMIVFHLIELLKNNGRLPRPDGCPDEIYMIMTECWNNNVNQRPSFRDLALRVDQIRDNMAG

Turning to `[2H]C([2H])([2H])n1c(=O)n([C@H]2CC[C@@](C)(NC(=O)C3CC3)CC2)c2cc(Nc3ccc4nn(C)c(-c5cnn(C(F)(F)F)c5)c4n3)ncc21` (single isomer, unassigned) [Example 91, N-((1s,4s)-1-Methyl-4-(3-(methyl-d3)-6-((2-methyl-3-(1-(trifluoromethyl)-1H-pyrazol-4-yl)-2H-pyrazolo[4,3-b]pyridin-5-yl)amino)-2-oxo-2,3-dihydro-1H-imidazo[4,5-c]pyridin-1-yl)cyclohexyl)cyclopropanecarboxamide], the IC50 in assay [1] was above 1000 nM; in assay [2], at most 10 nM; in assay [3] it was 10 to 100 nM; in assay [4], at most 10 nM.

Turning to `[2H]C([2H])([2H])n1c(=O)n([C@]2([2H])CC[C@@H](NC(=O)OC)C2)c2cc(Nc3cc(-c4cnccc4C(F)(F)F)c4nc(C)c(-c5cnn(C(F)F)c5)n4n3)ncc21` (single isomer, unassigned) [Example 97], the IC50 in assay [1] is above 1000 nM; in assay [2], at most 10 nM; in assay [3], 500 to 1000 nM; in assay [4], at most 10 nM.

With `CCOC(=O)c1cnc(Nc2cc(Nc3cc4c(cn3)n(C)c(=O)n4[C@@H]3CC[C@@H](NC(=O)OC)C3)cc(-c3cccc(C#N)c3)c2)o1` [Example 1, Ethyl 2-((3′-cyano-5-((1-((1R,3R)-3-((methoxycarbonyl)amino)cyclopentyl)-3-methyl-2-oxo-2,3-dihydro-1H-imidazo[4,5-c]pyridin-6-yl)amino)-[1,1′-biphenyl]-3-yl)amino)oxazole-5-carboxylate], the IC50 is above 1000 nM in assay [1], 10 to 100 nM in assay [2], above 1000 nM in assay [3] and 100 to 500 nM in assay [4].

On to `COC(=O)N[C@@H]1CC[C@@H](n2c(=O)n(C)c3cnc(Nc4cc(NC(=O)C5(F)CCOCC5)cc(-c5cccc(C#N)c5)c4)cc32)C1` [Example 2, Methyl ((1R,3R)-3-(6-((3′-cyano-5-(4-fluorotetrahydro-2H-pyran-4-carboxamido)-[1,1′-biphenyl]-3-yl)amino)-3-methyl-2-oxo-2,3-dihydro-1H-imidazo[4,5-c]pyridin-1-yl)cyclopentyl)carbamate], for which the IC50 in assay [1] is above 1000 nM; in assay [2], at most 10 nM; in assay [3], above 1000 nM; in assay [4], at most 10 nM.

As for `[2H]C([2H])([2H])n1c(=O)n([C@@H]2CC[C@@H](NC(=O)OC)C2)c2cc(Nc3cc(C(=O)N4CC5(CCN5C)C4)c4cccc(C(F)(F)F)c4n3)ncc21` [Example 3, Methyl ((1R,3R)-3-(3-(methyl-d3)-6-((4-(1-methyl-1,6-diazaspiro[3.3]heptane-6-carbonyl)-8-(trifluoromethyl)quinolin-2-yl)amino)-2-oxo-2,3-dihydro-1H-imidazo[4,5-c]pyridin-1-yl)cyclopentyl)carbamate], the IC50 in assay [1] is above 1000 nM; in assay [2], at most 10 nM; in assay [3] it was 500 to 1000 nM; in assay [4], at most 10 nM.

For the compound `COC(=O)N[C@@H]1CC[C@@H](n2c(=O)n(C)c3cnc(Nc4cccc(-c5ccc(CO)c(C)c5)n4)cc32)C1` [Example 4, Methyl ((1R,3R)-3-(6-((6-(4-(hydroxymethyl)-3-methylphenyl)pyridin-2-yl)amino)-3-methyl-2-oxo-2,3-dihydro-1H-imidazo[4,5-c]pyridin-1-yl)cyclopentyl)carbamate], the IC50 in assay [1] was above 1000 nM; in assay [2], at most 10 nM; in assay [3] it was above 1000 nM; in assay [4], at most 10 nM.

Regarding `COC(=O)N[C@@H]1CC[C@@H](n2c(=O)n(C)c3cnc(Nc4cccc(-c5ccc(OC)nc5)n4)cc32)C1` [Example 5, Methyl ((1R,3R)-3-(6-((6′-methoxy-[2,3′-bipyridin]-6-yl)amino)-3-methyl-2-oxo-2,3-dihydro-1H-imidazo[4,5-c]pyridin-1-yl)cyclopentyl)carbamate], the IC50 is above 1000 nM in assay [1], at most 10 nM in assay [2], above 1000 nM in assay [3] and at most 10 nM in assay [4].

Take `[2H]C([2H])([2H])n1c(=O)n([C@@H]2CC[C@@H](NC(=O)OC)C2)c2cc(Nc3cc(C(=O)N4CCC(C#N)CC4)c4cccc(C(F)(F)F)c4n3)ncc21` [Example 6, Methyl ((1R,3R)-3-(6-((4-(4-cyanopiperidine-1-carbonyl)-8-(trifluoromethyl)quinolin-2-yl)amino)-3-(methyl-d3)-2-oxo-2,3-dihydro-1H-imidazo[4,5-c]pyridin-1-yl)cyclopentyl)carbamate]: the IC50 was 100 to 500 nM in assay [1], at most 10 nM in assay [2], 100 to 500 nM in assay [3] and at most 10 nM in assay [4].

With `COC(=O)N[C@@H]1CC[C@@H](n2c(=O)n(C)c3cnc(Nc4cccc(-c5ccc6[nH]nc(C)c6c5)n4)cc32)C1` [Example 7, Methyl ((1R,3R)-3-(3-methyl-6-((6-(3-methyl-1H-indazol-5-yl)pyridin-2-yl)amino)-2-oxo-2,3-dihydro-1H-imidazo[4,5-c]pyridin-1-yl)cyclopentyl)carbamate], the IC50 in assay [1] is above 1000 nM; in assay [2], at most 10 nM; in assay [3], above 1000 nM; in assay [4], 10 to 100 nM.

Turning to `COC(=O)N[C@@H]1CC[C@@H](n2c(=O)n(C)c3cnc(Nc4cccc(-c5ccc6c(c5)OCCO6)n4)cc32)C1` [Example 8, Methyl ((1R,3R)-3-(6-((6-(2,3-dihydrobenzo[b][1,4]dioxin-6-yl)pyridin-2-yl)amino)-3-methyl-2-oxo-2,3-dihydro-1H-imidazo[4,5-c]pyridin-1-yl)cyclopentyl)carbamate], the IC50 in assay [1] is above 1000 nM; in assay [2], at most 10 nM; in assay [3] it was above 1000 nM; in assay [4], at most 10 nM.

`[2H]C([2H])([2H])n1c(=O)n([C@@H]2CC[C@](C)(NC(C)=O)C2)c2cc(Nc3cc(-c4cnccc4C(F)(F)F)c4nc(C)c(-c5cnn(C(F)F)c5)n4n3)ncc21` [Example 168, N-((1S,3R)-3-(6-((3-(1-(Difluoromethyl)-1H-pyrazol-4-yl)-2-methyl-8-(4-(trifluoromethyl)pyridin-3-yl)imidazo[1,2-b]pyridazin-6-yl)amino)-3-(methyl-d3)-2-oxo-2,3-dihydro-1H-imidazo[4,5-c]pyridin-1-yl)-1-methylcyclopentyl)acetamide]: the IC50 was above 1000 nM in assay [3] and at most 10 nM in assay [4].

As to `[2H]C([2H])([2H])n1c(=O)n([C@@H]2CC[C@@]([2H])(NC(=O)OC)C2)c2cc(Nc3cc(C(C)(C)O)c4nc(C)n(-c5cnn(C(F)F)c5)c4n3)ncc21` [Example 169, Methyl ((1R,3R)-3-(6-((3-(1-(difluoromethyl)-1H-pyrazol-4-yl)-7-(2-hydroxypropan-2-yl)-2-methyl-3H-imidazo[4,5-b]pyridin-5-yl)amino)-3-(methyl-d3)-2-oxo-2,3-dihydro-1H-imidazo[4,5-c]pyridin-1-yl)cyclopentyl-1-d)carbamate], the IC50 in assay [3] was above 1000 nM; in assay [4] it was at most 10 nM.
